Laboratory results reported in patent US5496533A, “Rhenium complexes” (Australian Nuclear Science & Technology Organisation, priority 1992, dated 1996).
Like-named read-outs stand apart in the source and are kept apart here.

Assay: Hygroscopic nature of the HCl salts
Assay type: physicochemical
Experimental: To a solution of N-methyl-bicyclic compound (2) (10 mmole) in dry THF (100-150ml) was added a large excess of LiAlH4 (30 mmole), and the mixture was refluxed for about 24 hr. The reaction mixture was quenched with […]. NH4 Cl, and filtered. The contents of the funnel were washed with 100ml of CHCl3 twice and the combined filtrate of THF and CHCl3 was evaporated to dryness under reduced pressure. The residue was dissolved in ether (100 ml), and the hydrochloride salt was made by addition of ethanol--HCl and removal of organic solvent under reduced pressure.
To a solution of N-acyl-bicyclic compound (3) (10 mmole) in dry tetrahydrofuran (THF) (100-150ml) was added a large excess of LiAlH4 (50 mmole), and the mixture was refluxed for about 24 hr. The reaction mixture was quenched with satd. NH4 Cl, and filtered. The contents of the funnel were washed with 100 ml of CHCl3 twice and the combined filtrate of THF and CHCl3 was evaporated to dryness under reduced pressure. Water was added (100 ml), and the pH was adjusted to 3.0 with concentrated HCl. The mixture was extracted with diethyl ether (80 ml/extraction) to remove ether soluble impurities. These ether solutions were discarded. The pH was then adjusted to 8.0 and extracted with fresh ether. These ether solutions were dried (Na2 SO4), filtered and evaporated under reduced pressure. […]

Compound: CN(CCNCC(C)(C)S)CC(C)(C)S [N-methyl compound (4), 2,2,9,9-pentamethyl-4-N-methyl-4,7-diaza-1,10-decanedithiol]
- hygroscopic nature of HCl salts: very hygroscopic
- hygroscopic nature of HCl salts (listed as 4(N--Me)): strong hygroscopic nature
